Reference: ChEMBL document CHEMBL1201862, “PubChem BioAssay data set” (2004)
Activity calls are given as the source filed them.

How the values were obtained:
[1] = molecular target: T1, Nuclear receptor subfamily 0 group B member 1 (Homo sapiens, UniProt P51843); assay: Luminescence-based cell-based high throughput dose response assay for inhibitors of the orphan nuclear receptor subfamily 0, group B, member 1 (DAX1; NR0B1). [Related pubchem assays (depositor defined):AID504766, AID504790]; assay type: functional
T1 sequence (P51843 whole entry): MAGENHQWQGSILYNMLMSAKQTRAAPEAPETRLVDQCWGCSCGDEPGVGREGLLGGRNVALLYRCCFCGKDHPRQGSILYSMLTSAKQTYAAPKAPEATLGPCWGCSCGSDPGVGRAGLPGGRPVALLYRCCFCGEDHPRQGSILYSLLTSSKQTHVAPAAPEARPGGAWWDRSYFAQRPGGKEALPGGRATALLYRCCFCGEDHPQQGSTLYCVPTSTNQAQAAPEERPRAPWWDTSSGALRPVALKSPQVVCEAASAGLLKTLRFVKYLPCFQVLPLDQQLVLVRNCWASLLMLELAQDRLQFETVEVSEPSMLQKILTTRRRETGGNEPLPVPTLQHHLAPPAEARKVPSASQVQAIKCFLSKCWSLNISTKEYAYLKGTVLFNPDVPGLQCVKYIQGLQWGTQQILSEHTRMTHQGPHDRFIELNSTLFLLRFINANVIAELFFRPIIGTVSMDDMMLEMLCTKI

HEK293 = assay: cells; assay type: functional, cell-based; conditions: Homo sapiens
Escherichia coli = assay: microbe, parasite or virus in culture
[2] = molecular target: Luciferin 4-monooxygenase (Photinus pyralis, UniProt P08659); assay: Counter Screen for Luciferase-based Assay Positives. [Related pubchem assays: 620, 618, 411 ]
Luciferin 4-monooxygenase, sequence (P08659 whole entry): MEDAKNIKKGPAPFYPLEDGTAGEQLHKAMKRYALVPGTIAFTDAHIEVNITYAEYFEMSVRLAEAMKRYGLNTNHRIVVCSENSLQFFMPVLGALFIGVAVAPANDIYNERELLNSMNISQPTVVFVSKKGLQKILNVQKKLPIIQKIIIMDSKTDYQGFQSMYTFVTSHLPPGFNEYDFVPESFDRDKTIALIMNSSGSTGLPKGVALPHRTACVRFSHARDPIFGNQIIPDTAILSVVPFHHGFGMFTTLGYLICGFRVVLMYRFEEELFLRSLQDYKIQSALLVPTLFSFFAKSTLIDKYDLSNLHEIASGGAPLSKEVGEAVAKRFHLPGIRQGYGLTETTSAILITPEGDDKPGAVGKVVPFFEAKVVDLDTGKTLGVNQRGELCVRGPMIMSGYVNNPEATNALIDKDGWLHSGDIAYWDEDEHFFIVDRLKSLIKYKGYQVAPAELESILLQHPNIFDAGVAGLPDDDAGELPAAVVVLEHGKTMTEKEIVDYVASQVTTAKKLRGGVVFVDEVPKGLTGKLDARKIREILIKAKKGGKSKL

Nonstructural protein 1 = Nonstructural protein 1 (Influenza A virus, UniProt Q194T2); assay type: functional, Influenza A virus (A/California/07/2009(H1N1))
Nonstructural protein 1, sequence (Q194T2 whole entry): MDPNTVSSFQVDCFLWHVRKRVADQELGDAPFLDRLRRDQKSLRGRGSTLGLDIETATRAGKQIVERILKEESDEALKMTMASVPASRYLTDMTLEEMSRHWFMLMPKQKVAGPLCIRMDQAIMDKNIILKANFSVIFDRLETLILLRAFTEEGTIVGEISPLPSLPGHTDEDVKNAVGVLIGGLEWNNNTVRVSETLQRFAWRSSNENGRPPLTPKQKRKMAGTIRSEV

HT-1080 = assay: HT1080 cell viability loss – fluorescence readout (AID 620); assay type: functional, cell-based; conditions: Homo sapiens
[3] = molecular target: Peroxisome proliferator-activated receptor gamma/Nuclear receptor coactivator 3 (Homo sapiens, UniProt P37231); assay: TR-FRET dose response biochemical High Throughput Screening assay for agonists of the steroid receptor coactivator 3 (SRC-3) recruitment by the peroxisome proliferator-activated receptor gamma (PPAR gamma): non-selective agonists. [Related pubchem assays: 1301 (Confirmation screen.), 1048 (Primary screen.)]; assay type: functional
Peroxisome proliferator-activated receptor gamma/Nuclear receptor coactivator 3, sequence (P37231 whole entry): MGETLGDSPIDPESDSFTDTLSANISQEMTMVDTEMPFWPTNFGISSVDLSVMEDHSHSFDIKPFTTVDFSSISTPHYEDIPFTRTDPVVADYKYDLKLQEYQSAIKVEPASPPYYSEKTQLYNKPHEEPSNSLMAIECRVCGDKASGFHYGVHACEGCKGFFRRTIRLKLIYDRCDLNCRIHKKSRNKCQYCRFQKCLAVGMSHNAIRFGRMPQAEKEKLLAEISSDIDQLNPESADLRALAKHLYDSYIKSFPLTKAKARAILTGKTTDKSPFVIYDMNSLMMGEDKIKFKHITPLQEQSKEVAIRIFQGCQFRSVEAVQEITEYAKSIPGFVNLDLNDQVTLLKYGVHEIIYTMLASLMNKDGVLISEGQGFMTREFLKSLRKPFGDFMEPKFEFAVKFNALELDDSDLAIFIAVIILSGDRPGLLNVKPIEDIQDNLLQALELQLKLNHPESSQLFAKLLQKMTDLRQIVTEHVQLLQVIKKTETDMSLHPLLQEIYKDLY
Peroxisome proliferator-activated receptor gamma/Nuclear receptor coactivator 3, sequence (Q9Y6Q9 whole entry, further chain): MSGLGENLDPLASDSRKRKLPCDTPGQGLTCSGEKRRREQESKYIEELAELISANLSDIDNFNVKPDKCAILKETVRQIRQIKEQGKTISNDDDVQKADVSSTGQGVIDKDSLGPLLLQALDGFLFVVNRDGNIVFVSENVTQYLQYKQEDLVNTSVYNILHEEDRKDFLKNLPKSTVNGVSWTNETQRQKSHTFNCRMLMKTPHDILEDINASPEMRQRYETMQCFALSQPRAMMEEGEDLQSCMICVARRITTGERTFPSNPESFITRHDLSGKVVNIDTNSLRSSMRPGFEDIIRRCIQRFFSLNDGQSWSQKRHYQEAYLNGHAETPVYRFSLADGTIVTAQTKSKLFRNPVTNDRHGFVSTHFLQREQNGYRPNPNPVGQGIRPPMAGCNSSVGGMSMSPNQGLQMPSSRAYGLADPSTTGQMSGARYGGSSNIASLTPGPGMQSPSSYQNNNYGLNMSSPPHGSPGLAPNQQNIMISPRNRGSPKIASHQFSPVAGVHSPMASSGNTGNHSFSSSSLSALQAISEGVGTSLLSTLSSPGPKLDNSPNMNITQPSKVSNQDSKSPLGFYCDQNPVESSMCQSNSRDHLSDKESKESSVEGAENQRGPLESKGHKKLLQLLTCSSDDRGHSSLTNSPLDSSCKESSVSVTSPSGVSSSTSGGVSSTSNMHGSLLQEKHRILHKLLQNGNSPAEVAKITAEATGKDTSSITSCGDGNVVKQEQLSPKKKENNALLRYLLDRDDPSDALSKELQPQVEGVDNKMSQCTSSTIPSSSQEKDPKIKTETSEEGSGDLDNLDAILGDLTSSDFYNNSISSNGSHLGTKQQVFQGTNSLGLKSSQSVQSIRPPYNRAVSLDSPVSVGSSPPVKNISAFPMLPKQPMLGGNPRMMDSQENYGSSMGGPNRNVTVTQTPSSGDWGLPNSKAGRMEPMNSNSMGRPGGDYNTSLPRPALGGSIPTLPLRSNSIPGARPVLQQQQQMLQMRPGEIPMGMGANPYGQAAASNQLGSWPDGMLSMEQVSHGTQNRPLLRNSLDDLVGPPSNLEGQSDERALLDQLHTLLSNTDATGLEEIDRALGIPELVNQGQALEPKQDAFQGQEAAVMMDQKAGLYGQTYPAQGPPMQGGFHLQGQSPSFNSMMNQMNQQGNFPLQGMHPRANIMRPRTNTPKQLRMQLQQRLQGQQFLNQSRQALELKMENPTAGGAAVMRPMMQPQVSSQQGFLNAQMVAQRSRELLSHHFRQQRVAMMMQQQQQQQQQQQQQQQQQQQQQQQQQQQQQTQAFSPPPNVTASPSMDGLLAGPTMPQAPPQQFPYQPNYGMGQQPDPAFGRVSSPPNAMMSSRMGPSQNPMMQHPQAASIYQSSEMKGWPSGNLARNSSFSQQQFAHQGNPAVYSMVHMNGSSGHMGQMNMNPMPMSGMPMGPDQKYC

[4] = molecular target: Peroxisome proliferator-activated receptor gamma/Nuclear receptor coactivator 2 (Homo sapiens, UniProt P37231); assay: (§1) TR-FRET dose response biochemical High Throughput Screening assay for agonists of the steroid receptor coactivator 2 (SRC-2) recruitment by the peroxisome proliferator-activated receptor gamma (PPAR gamma): non-selective agonists. [Related pubchem assays: 1297, 1032 ]; assay type: functional
Peroxisome proliferator-activated receptor gamma/Nuclear receptor coactivator 2, sequence (P37231 whole entry): as the sequence (P37231 whole entry) above
Peroxisome proliferator-activated receptor gamma/Nuclear receptor coactivator 2, sequence (Q15596 whole entry, further chain): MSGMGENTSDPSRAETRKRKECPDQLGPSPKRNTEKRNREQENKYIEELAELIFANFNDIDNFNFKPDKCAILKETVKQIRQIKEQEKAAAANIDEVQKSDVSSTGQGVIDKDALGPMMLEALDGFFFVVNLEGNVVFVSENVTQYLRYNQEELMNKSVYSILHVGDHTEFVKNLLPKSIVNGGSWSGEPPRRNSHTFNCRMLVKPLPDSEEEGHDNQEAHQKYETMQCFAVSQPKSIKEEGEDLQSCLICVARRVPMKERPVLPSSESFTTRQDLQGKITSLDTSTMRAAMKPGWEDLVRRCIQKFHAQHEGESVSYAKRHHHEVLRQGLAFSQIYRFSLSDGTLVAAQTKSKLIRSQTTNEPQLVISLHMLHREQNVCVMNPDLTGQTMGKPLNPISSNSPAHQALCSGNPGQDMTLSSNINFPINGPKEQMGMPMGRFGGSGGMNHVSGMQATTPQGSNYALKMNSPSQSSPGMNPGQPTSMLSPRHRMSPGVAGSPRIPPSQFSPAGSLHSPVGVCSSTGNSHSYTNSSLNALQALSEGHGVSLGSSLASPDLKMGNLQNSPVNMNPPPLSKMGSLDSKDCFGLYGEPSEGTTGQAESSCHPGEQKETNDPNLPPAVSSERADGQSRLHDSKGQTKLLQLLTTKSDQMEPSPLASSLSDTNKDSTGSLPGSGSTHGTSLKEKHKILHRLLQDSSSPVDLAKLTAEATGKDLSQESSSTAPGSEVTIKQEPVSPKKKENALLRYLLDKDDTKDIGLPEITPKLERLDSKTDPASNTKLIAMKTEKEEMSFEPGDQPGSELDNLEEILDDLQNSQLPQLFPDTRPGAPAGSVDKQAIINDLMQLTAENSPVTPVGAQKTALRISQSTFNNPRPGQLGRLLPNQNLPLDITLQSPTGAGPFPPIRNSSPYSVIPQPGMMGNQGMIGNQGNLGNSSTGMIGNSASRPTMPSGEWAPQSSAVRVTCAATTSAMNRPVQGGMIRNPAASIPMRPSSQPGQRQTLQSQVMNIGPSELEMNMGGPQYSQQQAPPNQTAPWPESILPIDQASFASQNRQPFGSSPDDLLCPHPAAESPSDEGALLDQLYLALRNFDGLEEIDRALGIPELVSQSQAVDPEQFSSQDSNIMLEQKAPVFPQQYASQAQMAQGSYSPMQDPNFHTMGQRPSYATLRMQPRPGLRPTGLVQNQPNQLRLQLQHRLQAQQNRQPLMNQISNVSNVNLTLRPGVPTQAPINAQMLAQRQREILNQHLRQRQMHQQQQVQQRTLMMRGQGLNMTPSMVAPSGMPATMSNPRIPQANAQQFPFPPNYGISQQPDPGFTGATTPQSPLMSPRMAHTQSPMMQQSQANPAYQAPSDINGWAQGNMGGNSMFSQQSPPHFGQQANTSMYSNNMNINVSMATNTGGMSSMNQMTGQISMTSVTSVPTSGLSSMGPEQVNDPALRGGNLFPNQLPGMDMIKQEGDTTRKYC

[5] = molecular target: Peroxisome proliferator-activated receptor gamma/Nuclear receptor coactivator 1 (Homo sapiens, UniProt P37231); assay: as §1, with “1 (SRC-1)” for “2 (SRC-2)”, “assays (depositor defined):AID1300, AID1808, AID504735, AID631]” for “assays: 1297, 1032 ]”; assay type: protein assay
[6] = molecular target: T2, Heat shock factor protein 1 (Mus musculus, UniProt P38532); assay: decrease of HSF1-responsive luciferase luminescence – cell-based, NIH3T3, dose retest, confirmation (AID 2382); assay type: functional;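 also: NIH3T3 fibroblasts with HSF1-driven luciferase reporter stressed by proteasome inhibitor MG132; luminescence from HSF1-driven luciferase expression after 8 hours of MG132 stress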
T2 sequence (P38532 whole entry): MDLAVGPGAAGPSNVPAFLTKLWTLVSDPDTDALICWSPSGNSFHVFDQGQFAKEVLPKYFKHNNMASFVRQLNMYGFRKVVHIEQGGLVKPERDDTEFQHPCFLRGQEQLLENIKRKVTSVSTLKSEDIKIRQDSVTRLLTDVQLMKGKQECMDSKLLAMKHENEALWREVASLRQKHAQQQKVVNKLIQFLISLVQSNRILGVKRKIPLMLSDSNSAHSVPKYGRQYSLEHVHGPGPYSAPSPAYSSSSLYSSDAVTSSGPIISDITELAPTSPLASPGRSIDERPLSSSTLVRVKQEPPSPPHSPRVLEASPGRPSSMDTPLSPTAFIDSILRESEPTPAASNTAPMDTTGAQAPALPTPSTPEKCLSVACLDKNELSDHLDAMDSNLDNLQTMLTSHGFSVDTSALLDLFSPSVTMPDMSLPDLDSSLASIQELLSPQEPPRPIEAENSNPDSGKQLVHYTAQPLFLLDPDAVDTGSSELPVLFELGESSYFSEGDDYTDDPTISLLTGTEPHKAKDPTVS

[7] = blockers of CRF-binding protein–CRF-R2 complex – cell-based, uHTS hits, 384-well, dose response (AID 651639); assay type: functional, Homo sapiens; conditions: read-out: IC50_Mean
[8] = molecular target: T3, Corticotropin-releasing factor receptor 2/Corticotropin-releasing factor-binding protein (Homo sapiens, UniProt P24387+Q13324); assay: Dose Response confirmation of uHTS hits for small molecule antagonists of the CRF-binding protein and CRF-R2 receptor complex.; assay type: functional; conditions: read-out: IC50_Mean
T3 sequence (Q13324 whole entry): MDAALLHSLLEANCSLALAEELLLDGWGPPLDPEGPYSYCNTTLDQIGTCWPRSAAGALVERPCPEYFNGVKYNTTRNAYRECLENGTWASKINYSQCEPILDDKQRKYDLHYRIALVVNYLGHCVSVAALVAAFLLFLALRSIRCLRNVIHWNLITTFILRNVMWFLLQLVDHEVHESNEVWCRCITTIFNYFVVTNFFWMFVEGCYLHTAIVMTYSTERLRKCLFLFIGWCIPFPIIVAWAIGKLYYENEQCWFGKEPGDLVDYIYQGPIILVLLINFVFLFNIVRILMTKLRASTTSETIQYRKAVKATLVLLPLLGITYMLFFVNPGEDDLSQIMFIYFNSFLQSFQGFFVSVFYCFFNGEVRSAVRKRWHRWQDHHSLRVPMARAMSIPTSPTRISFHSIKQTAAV
T3 sequence (P24387 whole entry): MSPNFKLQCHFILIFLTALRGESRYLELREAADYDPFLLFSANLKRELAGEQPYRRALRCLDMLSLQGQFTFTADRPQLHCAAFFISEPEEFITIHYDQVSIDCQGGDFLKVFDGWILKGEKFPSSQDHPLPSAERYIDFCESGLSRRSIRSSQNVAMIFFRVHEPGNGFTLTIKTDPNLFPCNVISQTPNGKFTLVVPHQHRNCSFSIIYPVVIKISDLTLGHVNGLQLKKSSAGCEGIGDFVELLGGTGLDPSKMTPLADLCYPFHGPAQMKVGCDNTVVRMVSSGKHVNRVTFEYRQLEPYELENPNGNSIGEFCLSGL

[9] = molecular target: T3, Corticotropin-releasing factor receptor 2/Corticotropin-releasing factor-binding protein; assay: activators of CRF receptor 2 with binding protein – uHTS hits, confirmation (AID 602473); assay type: functional; conditions: read-out: EC50_Mean
CHO = CHO cell viability loss, potency – luminescence, cytotoxicity control for TLR9-MyD88 binding inhibitor project, dose response (AID 588339); assay type: functional, cell-based, hamster; conditions: Cricetulus griseus;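 also: CHO cells stably coexpressing TLR9 and MyD88 fusions from primary screen; compound exposure lasted 48 hours before viability readout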
[10] = molecular target: Induced myeloid leukemia cell differentiation protein Mcl-1 (Homo sapiens, UniProt Q07820); assay type: functional
Induced myeloid leukemia cell differentiation protein Mcl-1, sequence (Q07820 whole entry): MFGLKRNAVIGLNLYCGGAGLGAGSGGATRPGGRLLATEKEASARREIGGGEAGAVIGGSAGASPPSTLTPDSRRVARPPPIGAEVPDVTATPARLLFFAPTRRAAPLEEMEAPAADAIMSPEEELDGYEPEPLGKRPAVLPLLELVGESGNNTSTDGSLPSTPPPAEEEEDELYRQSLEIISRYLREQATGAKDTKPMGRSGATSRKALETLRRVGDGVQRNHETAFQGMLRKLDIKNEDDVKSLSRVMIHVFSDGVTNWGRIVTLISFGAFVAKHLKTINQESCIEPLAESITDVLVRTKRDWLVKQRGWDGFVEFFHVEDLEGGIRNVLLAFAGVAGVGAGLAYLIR

[11] = molecular target: Protein-tyrosine kinase 2-beta (Homo sapiens, UniProt Q14289);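 also: potency of inhibitors of PYK2 kinase phosphorylation of poly-GT substrate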

Row | Structure (SMILES) | IC50 [1] | IC50 (HEK293) | EC50 [3] | EC50 [4] | EC50 [5] | further results
1 | O=C1c2ccccc2C(=O)N1CCc1c[nH]c2ccccc12 | > 67.5 µM (inactive) | > 67.5 µM (inactive) | – | – | – | –
2 | COC(C(=O)Nc1ccnn1C1CCN(Cc2ccc(C)o2)CC1)c1ccccc1 (configuration not stated) | – | – | – | – | – | AC50 (Escherichia coli): 74.5 µM (active)
3 | Clc1ccc(-c2nnc(N3CCCC3)nn2)cc1 | > 67.5 µM (inactive) | > 67.5 µM (inactive) | – | – | – | EC50 [2]: 1.39 µM (active); IC50 (Nonstructural protein 1): > 100 µM (active); EC50 (HT-1080): > 50 µM (not active)
4 | COc1ccc(C2CC(c3ccc(Br)cc3)=NN2C(S)=Nc2ccccc2)cc1 (configuration not stated) | – | – | > 79.4 µM (not active) | 30.2 µM (not active) | 31.8 µM (inactive) | –
5 | Cn1c(S)nnc1-c1sc2cc(C(F)(F)F)cnc2c1-c1cccnc1 | – | – | 20.2 µM (not active) | 7.93 µM (active) | 4.86 µM (active) | EC50 [6]: > 195 µM (not active)
6 | Nc1c(O)nc(O)nc1C(=O)OCC(=O)NCc1ccccc1 | > 67.5 µM (inactive) | > 67.5 µM (inactive) | – | – | – | –
7 | O=C(NC(Cc1ccccc1)c1nc2ccccc2[nH]1)c1ccc(Cl)c([N+](=O)[O-])c1 (configuration not stated) | – | – | – | – | – | IC50 [7]: 4.96 µM (active); IC50 [8]: 11.6 µM (active); AC50 (Escherichia coli): 25 µM (active); EC50 [9]: > 53 µM (inactive)
8 | N#Cc1cc(C(=O)c2cc(Br)ccc2O)cn(Cc2ccccc2)c1=O | – | – | > 79.4 µM (not active) | > 79.4 µM (not active) | > 79.4 µM (inactive) | –
9 | COc1ccc(C(=O)c2sc3nc(-c4ccccc4)ccc3c2N)cc1OC | – | – | – | – | – | IC50 (CHO): 27.3 µM (inactive); IC50 [10]: 1.27 µM (not active); IC50 [11]: 12 µM (not active)
